Four molecules from patent publication US7482008B1, “Human T cell reactive feline protein (TRFP) isolated from house dust and uses therefor” (Merck Patent GmbH, priority 1989, dated 2009) can be followed below.

One assay deals with IgE. The assay can be described thus: IgE binding of dimeric recombinant chain 1 and alkali treated TRFP.
For a further assay, the system named is T cell. The assay is described as follows: T cell reactivity of dimeric recombinant chain 1 and alkali treated TRFP. Format: cell-based.
The test system of assay [1] is human IgE. The assay can be described thus: SDS/PAGE Western immunoblot of human IgE binding, plasma from patient #417. Conditions: patient #417 plasma. The method, then:
Western immunoblot analysis of the peptides produced in above was performed. The concentration of all protein samples (e.g., TRFP, recombinant chain 1 of TRFP, recombinant chain 2 of TRFP, peptide XYZ, peptide XZY, peptide YXZ, peptide YZX, peptide ZXY and peptide ZYX) for gel electrophoresis was determined by the BCA method (Pierce Co.). All protein samples were loaded on the gel at 5 μg/lane except TRFP at 10 μg/lane. Protein separation was carried out on a 15% acrylamide gel, and transfer was performed by electroblotting at 1.5 Amps for 1.5 hours onto nitrocellulose paper (Schleicher and Schuell, 0.1 microns) in a Hoeffer apparatus according to the protocol of Towbin, H., T. Stachlin, and J. Gordon, PNAS 76:4350 (1979). Proteins were rinsed in blot solution (25 mM Tris-HCl 7.5, 0.171 M NaCl and 0.5 ml/liter Tween 20). The blot was then blocked for one hour in blocking solution (1% milk in blot solution). Plasma from patient #417, used as a primary antibody source, was diluted in blocking solution to 10% and preabsorbed for 1.5 hours with unused nitrocellulose (2 cm×15 cm). The prepared human plasma was then incubated overnight on an orbital shaker with the protein blot section of interest. Following the first antibody incubation the blot section was washed three times, each wash involved a fifteen minute incubation in blot solution. The second antibody, specific for human IgE (biotinylated goat anti-human IgE, KPL Inc.), was diluted 1:2500 in blot solution and the incubation proceeded for two hours. Excess second antibody was subsequently removed by three 15 minute incubations with blot solution. ^125I Iodinated streptavidin (Amersham) was diluted 1:2500 in blot solution and incubated with blots for 1 hour, at 2 μCi in a 50 ml incubation volume. Blot sections were then washed with blot solution until the detectable radioactivity in the waste solution decreased to background levels. The blot section was then wrapped in saran wrap and exposed to film overnight with a cronex intensifying screen at −80° C.
(A western blot detects proteins with antibodies after separation by electrophoresis.)

The test system of assay [2] is human IgE. The assay is described as follows: ELISA of human IgE binding, plasma from patient #669. The note with it: patient #669 plasma. As to the method:
Corning assay plates (#25882-96) were coated with 10 μg/ml of each coating antigen (i.e., TRFP, chain 1 (recombinant chain 1 of TRFP), chain 2 (recombinant chain 2 of TRFP), peptide XYZ, peptide XZY, peptide YXZ, peptide YZX, peptide ZXY and peptide ZYX) listed in FIG. 34 at 50 μl/well and incubated overnight at 4° C. The coating antigens were removed and the wells were blocked with 0.5% gelatin in PBS, 200 μl/well for 2 hours at room temperature. Plasma from patient #669 was serially diluted with PBS-Tween 20 (PBS with 0.05% nonionic detergent Tween-20 Sigma, St. Louis Mo.) and 100 μl/well was added and incubated overnight at 4° C. (plasma dilutions are tested in duplicate). The second antibody (biotinylated goat anti-Human IgE, 1:1000, Kirkegaard & Perry Laboratories Inc. Gaithersburg, Md.), was added at 100 μl/well for one hour at room temperature. This solution was removed and streptavidin-HRPO, 1:10,000 (Southern Biotechnology Associates, Inc., Birmingham, Ala.) was then added at 100 μl/well for one hour at room temperature (all wells were washed three times with PBS-Tween between each incubation step). TMB Membrane Peroxidase Substrate system (Kirkegaard & Perry Laboratories) was freshly mixed, and added at 100 μl/well. The color was allowed to develop for 2-5 minutes. The reaction was stopped by the addition of 100 μl/well of 1M phosphoric acid. Plates were read on a Microplate EL 310 Autoreader (Biotek Instruments, Winooski, Vt.) with a 450 nm filter. The absorbance levels of duplicate wells were averaged.
Background: In an ELISA, binding on a coated surface is turned into a signal by an enzyme label.

With “recombinant chain 1 of TRFP in a dimeric form: recombinant chain 1 of TRFP in a dimeric form”, in the assay with IgE, the IgE binding entry is listed as “markedly reduced IgE binding”. Moreover, the T cell reactivity entry in the assay with T cell is recorded as “maintains T cell reactivity”.
The matching figures for “mild alkali treated TRFP: mild alkali treated TRFP”: “markedly reduced IgE binding” and “maintains T cell reactivity”.

B1: peptide XYZ: recombinant peptide: peptide X, peptide Y and peptide Z linked in this order (protein)
chain: MGHHHHHHLVPRGSKRDVDLFLTGTPDEYVEQVAQYKALPVVLENARILKNCVDAKMTEEDKEFFAVANGNELLLDLSLTKVNATEPER
With B1, in the assay on human IgE [1], the “IgE binding, Western immunoblot” value is “show IgE binding”. Further, the “IgE binding, ELISA” value in the assay on human IgE [2] is “slight signal”.

B2: peptide ZXY: recombinant peptide: peptide Z, peptide X and peptide Y linked in this order (protein)
chain: MGHHHHHHEFFFAVANGNELLLDLSLTKVNATEPERKRDVDLFLTGTPDEYVEQVAQYKALPVVLENARILKNCVDAKMTEEDKE
On to B2, for which the “IgE binding, Western immunoblot” value with human IgE [1] is given as “show IgE binding”. The “IgE binding, ELISA” value in the assay with human IgE [2] is given as “clear reactivity with IgE”.
